Results as given in patent US20030044413A1, “Methods of limiting apoptosis of cells” (Regents of the University of Minnesota, priority 1998, published 2003).
Values joined by “and” are separate entries in the source; they are usually repeats but may differ in a detail not shown here. Identical values can stand only once. “Also recorded” adds a separate entry of the source.

Key:
[1] = tested on: astrocytes; experiment: Unconjugated bilirubin-induced apoptosis in astrocytes; assay type: cell-based, rat; conditions: for apoptosis, increase over control values: 4 hours
[2] = tested on: rat primary hepatocytes; experiment: FACS analysis of ΔΨm and ROS, rat primary hepatocytes; assay type: cell-based; conditions: 1% ETOH, 4 h, hepatocytes
Experimental: A ΔΨm and ROS measurement. ΔΨm and ROS production were measured by FACScan (Becton Dickinson) analysis. Freshly isolated rat hepatocytes were cultured for 3 h as described above and then incubated with William's E medium supplemented with either 100 μM DCA, 100 μM UDCA, equal molar amounts of both, or no bile acid (control), for 6 h. Rat hepatocytes were also cultured with either 1% ethanol, 100 μM UDCA, ethanol+UDCA, or no addition (control) for 4 h. HuH-7 cells, Hep G2 cells, and human osteogenic sarcoma Saos-2 cells were incubated with TGF-β1, anti-Fas antibody or okadaic acid, respectively, for 48 h under the same conditions as outlined above. For combination studies, cells were pretreated with UDCA or hyodeoxycholic acid for 60 min prior to addition of DCA, ethanol, TGF-β1, anti-Fas antibody or okadaic acid. Aliquots of 1.0×10^6 cells were incubated for 15 min at 37° C. with 50 nM 3,3′-dihexyloxacarbocyanine iodide [DiOC6(3)], 2 μM dihydroethidium (HE), or 5 μM 2′,7′-dichlorofluorescin diacetate (H2DCFDA; Molecular Probes, Inc. Eugene, Oreg.) and analyzed by cytofluorometry (Cathcart et al., Anal. Biochem., 134, 111-116 (1983); Zamzami et al., J. Exp. Med., 181, 1661-1672 (1 995); Carter et al., J. Leukocyte Biol., 55, 253-258 (1994)).
Rat primary hepatocytes were incubated with 100 μM DCA and 1% ETOH for 6 h and 4 h, respectively; HuH-7 cells with 1 nM TGF-β1 for 48 h; Hep G2 cells with 0.5 μg/ml anti-Fas antibody (CH-11) for 48 h, and Saos-2 cells with 50 nM okadaic acid (OA) for 48 h. In each combination group, cells were pretreated with 100 μM UDCA alone for 60 min prior to addition of the inducer. Aliquots of 1.0×10^6 cells were incubated for 15 min at 37° C. with 5 μM 2′,7′-dichlorofluorescin diacetate (H2DCFDA) and analyzed by cytofluorometry.

[3] = tested on: isolated rat liver mitochondria; experiment: MPT spectrophotometric assay (mitochondrial swelling); conditions: for effect on DCA-induced MPT / mitochondrial swelling: preincubation (500 μM bile acid or cyclosporine A) before DCA
Experimental: Isolation of mitochondria and MPT assays. Low calcium liver mitochondria were isolated from male 200-250 g Sprague-Dawley rats by density gradient centrifugation as previously published (Botla et al., J. Pharmacol. Exp. Ther., 272, 930-938 (1995); Walajtys-Rhode et al., J. Biol. Chem., 267, 370-379 (1992); and Sokol et al., Gastroenterology, 99, 1061-1071 (1990)). The mitochondrial fraction was resuspended in 30 ml of wash buffer containing 0.1 M KCl, 5 mM 3-(N-morpholino)-propane sulfonic acid (MOPS), and 1 mM EGTA, at pH 7.4 and centrifuged at 7,000×g for 10 min at 4° C. A final wash was carried out in chelex-100-treated buffer (Bio-Rad Laboratories, Hercules, Calif.) containing no EGTA. The resulting pellet was suspended in 4 ml of chelex--100-treated buffer containing 125 mM sucrose, 5 mM HEPES, 50 mM KCl and 2 mM KH2PO4. The usual yield of mitochondria was approximately 25 mg of protein per gram of liver tissue. Mitochondrial purity was established as previously described (Botla et al., J. Pharmacol. Exp. Ther., 272, 930-938 (1995)). Protein concentrations were determined using the Bio-Rad protein assay kit as specified by the manufacturer.
MPT was measured spectrophotometrically as described previously (Botla et al., J. Pharmacol. Exp. Ther., 272, 930-938 (1995); Pastorino et al., J. Biol. Chem., 268, 13791-13798 (1993)), during 10 min incubations at 25° C. using mitochondria (1 mg of protein/ml) suspended in 3 ml of a chelex-100-treated buffer containing 0.1 M NaCl, 10 mM MOPS, pH 7.4. Swelling was monitored at 540 nm in a Beckman DU 64 spectrophotometer. Basal values of mitochondria absorbance were measured for 5 min, and the optical density was monitored another 5 min after addition of 200 μM DCA or 80 μM phenylarsine oxide (PhAsO; Sigma Chemical Co.). For coincubation studies, mitochondria were preincubated with 500 μM UDCA or hyodeoxycholic acid for 5 min at 25° C. prior to the assay.
Spectrophotometric and Fluorimetric Assays of MPT. The MPT was assessed using a spectrophotometric assay measuring high amplitude rapid changes in mitochondrial volume, and a fluorimetric assay quantitating the release of calcein from calcein-loaded mitochondria. The MPT was measured spectrophotometrically as previously described (Pastorino, J. Biol. Chem., 268, 13791-13798 (1993); Botla et al., J. Pharmacol. Exp. Ther., 272, 930-938 (1995)). Briefly, mitochondria (3 mg protein) were incubated in 3 ml of chelex-100-treated respiration buffer (0.1 M NaCl, 10 mM MOPS, pH 7.4) for 10 min at 25° C. and monitored at 540 nm in a Beckman DU 64 spectrophotometer. Basal values of mitochondrial absorbance were measured for 5 min, and the optical density was monitored for an additional 5 min after addition of increasing concentrations of DCA (50-200 μM) or 80 μM phenylarsine oxide (PhAsO; Sigma Chemical Co., St. Louis, Mo.). For the coincubation studies, mitochondria were preincubated with UDCA (100-500 μM), or 500 μM hyodeoxycholic acid (HDCA; Sigma Chemical Co.) for 5 min at 25° C. prior to initiation of the assay.
Measurement of MPT and determination of cytochrome c content in supernatants and mitochondrial pellets after MPT. The MPT was assessed using a spectrophotometric assay measuring high amplitude rapid changes in mitochondria volume. Mitochondria (1 mg protein) were incubated in 1 ml of chelex-100-treated respiration buffer (0.1 M NaCl, 10 mM MOPS, pH 7.4) for 10 min at 25° C. and swelling was monitored at 540 nm in a Beckman DU 64 spectrophotometer. Malate and glutamate (1 mM) were added to initiate respiration, and 3 min later rotenone (5 μM), an inhibitor of complex I of the respiratory chain, was also added to the supension. Basal values of mitochondria absorbance were measured for 5 min, and the optical density was monitored for an additional 5 min after addition 200 μM DCA or 80 μM phenylarsine oxide (PhAsO; Sigma Chemical Co.). […]

[4] = tested on: primary rat hepatocytes; experiment: Ethanol-induced apoptosis, Hoechst staining, primary rat hepatocytes; assay type: cell-based; conditions: 0.5% ethanol
Experimental: (§1) Incubation of cells with ethanol, TGF-β1, anti-Fas antibody or okadaic acid. Freshly isolated rat hepatocytes were cultured for 3 h as described above and then incubated with William's E medium supplemented with either 0.5% ethanol, 50 μM UDCA, ethanol plus UDCA, or no addition (control) for 2 h and 4 h. HuH-7 cells were incubated with Dulbecco's medium supplemented with either 1 nM TGF-β1 (R & D Systems, Minneapolis, Minn.), 100 μM UDCA, TGF-β1+UDCA, or no addition (control) for 24 h, 48 h, and 72 h. Hep G2 cells were incubated with Dulbecco's medium supplemented with either 0.5 μg/ml of anti-Fas antibody CH-11 (Upstate Biotechnology, Inc., Lake Placid, N.Y.), 100 μM UDCA, CH-11+UDCA, or no addition for 48 h. Both HuH-7 cells and human osteogenic sarcoma Saos-2 cells were cultured in Dulbecco's medium supplemented with either 50 nM okadaic acid (Boehringer Mannheim Biochemicals, Inc, Indianapolis, Ind.), 100 μM UDCA, okadaic acid+UDCA, or no addition for 48 h. In all the combination groups, cells were pretreated with UDCA alone for 60 min prior to addition of ethanol, TGF-β1, anti-Fas antibody or okadaic acid.
(§2) Morphological evaluation of apoptosis. Morphology was performed as described previously (Oberhammer et al., Proc. Natl. Acad. Sci. USA 89, 5408-5412 (1992)). Briefly, after fixation (with 4% formaldehyde in PBS, pH 7.4, for 10 min at room temperature), the cells were incubated with Hoechst dye 33258 (Sigma Chemical Co.) at 5 μg/ml in PBS for 5 min, washed with PBS and mounted with PBS:glycerol (3:1, v/v). Fluorescence was visualized with a Zeiss standard fluorescence microscope (Carl Zeiss, Inc., Thornwood, N.Y.). Photographs were taken with Kodak Ektar-1000 film (Eastman Kodak Co.). Stained nuclei were scored by blind analysis and categorized according to the condensation and staining characteristics of chromatin. Normal nuclei were identified as noncondensed chromatin dispersed over the entire nucleus. Apoptotic nuclei were identified by condensed chromatin, contiguous to the nuclear membrane, as well as nuclear fragmentation of condensed chromatin. Three fields per dish of approximately 500 nuclei were counted; mean values are expressed as the percent of apoptotic nuclei.

[5] = tested on: cytochrome c; experiment: Cytochrome c release from isolated mitochondria after MPT; design: species or system rat; conditions: added to isolated mitochondria before DCA
Experimental: Mitochondria isolation. […] In short, animals were sacrificed by exsanguination under ether anesthesia and the livers removed and rinsed in normal saline. Approximately 10 g of minced liver was homogenized at a speed of 800 rpm using 6 complete up and down strokes with a speed controlled mechanical skill drill and a teflon pestle (Tri-R Model K41, Tri-R Instruments, Rockville Center, N.Y.) in an ice-cold solution of 70 mM sucrose, 220 mM mannitol, 1 mM EGTA and 10 mM HEPES, pH 7.4 as a 10% (wt/vol) homogenate. The homogenate was centrifuged at 600×g for 10 min at 4° C. in an SS-34 rotor in a Sorvall RC5C centrifuge (Sorvall Instruments, Newtown, Conn.), and the postnuclear supernatant was centrifuged at 7,000×g for 10 min at 4° C. […] The pellet was resuspended in 2 mL of homogenate buffer, and 1 mL of the resuspended pellet was carefully layered onto a 35-mL self-generating gradient containing 0.25 M sucrose, 1 mM EGTA and percoll (Pharmacia Fine Chemicals, Piscataway, N.J.) (75:25, vol/vol). The mitochondria were purified by centrifugation at 43,000×g for 30 min at 4° C. using a Beckman Ti60 rotor and a Beckman ultracentrifuge model L8-55 (Beckman Instruments, Inc., Schaumburg, Ill.). The clear supernatant solution removed and the lower turbid layer was resuspended in 30 mL of wash buffer containing 0.1 M KCl, 5 mM 3-(N-morpholino)-propane sulfonic acid (MOPS), and 1 mM EGTA, at pH 7.4 and centrifuged at 7,000×g for 10 min at 4° C. The resulting mitochondria pellet was washed in wash buffer two times. A final wash was carried out in chelex-100-treated buffer (Bio-Rad Laboratories, Richmond, Va.; 200-400 mesh, potassium form) without EGTA. The pellet was suspended in 4 mL of chelex-100-treated resuspension buffer containing 125 mM sucrose, 50 mM KCl, 5 mM HEPES, and 2 mM KH2PO4. The usual yield of mitochondria was approximately 25 mg of protein per gram of liver tissue. Mitochondria were used for experiments within 3 h of isolation. Aliquots were removed for examining the purity of the mitochondria preparation.
Measurement of MPT and determination of cytochrome c content in supernatants and mitochondrial pellets after MPT. The MPT was assessed using a spectrophotometric assay measuring high amplitude rapid changes in mitochondria volume. Mitochondria (1 mg protein) were incubated in 1 ml of chelex-100-treated respiration buffer (0.1 M NaCl, 10 mM MOPS, pH 7.4) for 10 min at 25° C. and swelling was monitored at 540 nm in a Beckman DU 64 spectrophotometer. […] Basal values of mitochondria absorbance were measured for 5 min, and the optical density was monitored for an additional 5 min after addition 200 μM DCA or 80 μM phenylarsine oxide (PhAsO; Sigma Chemical Co.). […]

[6] = tested on: HuH-7 cells; experiment: TGF-β1-induced apoptosis, Hoechst staining, HuH-7 cells; assay type: cell-based, human; conditions: 1 nM TGF-β1, 100 μM bile acid, 72 h
Experimental: as §1
HuH-7 cells were treated with 1 nM TGF-β1, 100 μM of either hyodeoxycholic acid, taurocholic acid, tauroursodeoxycholic acid (Sigma Chemical Co.) or glycoursodeoxycholic acid (Steraloids Inc., Wilton, N.H.), or a combination of TGF-β1 plus the individual bile acids for 72 h. HeLa and Cos-7 cells were incubated with 50 nM okadaic acid, 100 μM of either tauroursodeoxycholic acid or glycoursodeoxycholic acid, or a combination of okadaic acid plus the individual bile acids for 24 h. In the combination groups, cells were pretreated with the bile acid alone for 60 min prior to incuation with TGF-β1 or okadaic acid. In all studies, the medium was gently removed at the indicated times and scored for nonviable cells. The attached cells were fixed for morphologic evaluation of apoptosis.
as §2, with “Morphology was performed as described previously (Oberhammer et al., Proc. Natl. Acad. Sci. USA 89, 5408-5412 (1992)). Briefly, after fixation (with 4% formaldehyde in PBS, pH 7.4, for 10 min at room temperature), the cells were incubated with Hoechst dye 33258 (Sigma Chemical Co.) at 5 μg/ml in PBS for 5 min, washed with PBS and mounted with PBS:glycerol (3:1, v/v).” left out

[7] = tested on: stroke injury; experiment: Stroke injury in a rat model; assay type: in vivo; conditions: preliminary results

Compound: C=CC1=C(C)/C(=C/c2[nH]c(Cc3[nH]c(/C=C4\NC(=O)C(C)=C4C=C)c(C)c3CCC(=O)O)c(CCC(=O)O)c2C)NC1=O [UCB, unconjugated bilirubin]
- apoptosis, increase over control values ([1]; 17 μM UCB): about 6 fold
- apoptosis, increase over control values ([1]; 85.5 μM UCB): about 11 fold
- percentage of apoptotic cells ([1]; 85.5 μM UCB, 22 hours): about 48%
- cell viability ([1]; UCB treatment): concentration and time dependent decrease in cell viability

Compound: CCO [ethanol]
- Peroxides Production (%) Inducer [2]: 17.9 ± 5.4%
- mitochondrial swelling with the substance alone ([3]; substance alone added to isolated mitochondria): did not induce mitochondria swelling
- increase in apoptosis over control values ([4]; 2 h): 10 fold
- increase in apoptosis ([4]; time not stated (summary)): 12 fold

Compound: C[C@H](CCC(=O)NCC(=O)O)[C@H]1CC[C@H]2[C@@H]3[C@@H](O)C[C@@H]4C[C@H](O)CC[C@]4(C)[C@H]3CC[C@]12C [glycoursodeoxycholic acid]
- effect on DCA-induced MPT / mitochondrial swelling [3]: Inhibition of deoxycholic acid-induced MPT
- effect on deoxycholic acid-induced cytochrome c release [5]: Inhibition of deoxycholic acid-induced MPT and cytochrome c release were also observed
- decrease of TGF-β1 apoptosis [6]: 37.5±5.1%

Compound: C[C@H](CCC(=O)NCCS(=O)(=O)O)[C@H]1CC[C@H]2[C@@H]3[C@H](O)C[C@@H]4C[C@H](O)CC[C@]4(C)[C@H]3C[C@H](O)[C@]12C [taurocholic acid]
- inhibition of TGF-β1-induced apoptosis [6]: did not; also recorded: neither hyodeoxycholic acid nor taurocholic acid showed inhibition

Compound: C[C@H](CCC(=O)NCCS(=O)(=O)O)[C@H]1CC[C@H]2[C@@H]3[C@@H](O)C[C@@H]4C[C@H](O)CC[C@]4(C)[C@H]3CC[C@]12C [tauroursodeoxycholic acid]
- effect on DCA-induced MPT / mitochondrial swelling [3]: Inhibition of deoxycholic acid-induced MPT
- mitochondria viability following a stroke injury [7]: improvement in mitochondria viability
- decrease of the area of stroke damage ([7]; pretreatment, compared to control animals): up to 50%
- effect on deoxycholic acid-induced cytochrome c release [5]: Inhibition of deoxycholic acid-induced MPT and cytochrome c release were also observed
- decrease of TGF-β1 apoptosis [6]: 45.8±7.9%

Compound: cyclosporine A
- inhibition of DCA-induced MPT (mitochondrial swelling) ([3]; 200 μM DCA, pretreatment 500 μM UDCA or 5 μM cyclosporine A): > 45% and 45.8±5.4%
- effect on DCA-induced MPT / mitochondrial swelling [3]: reduced deoxycholic acid-induced mitochondria swelling
